Measured values as given in patent US20210154281A1, “CELL-BASED CANCER VACCINES AND CANCER THERAPIES” (Massachusetts Institute of Technology, priority 2019, published 2021).
Where two headings read alike, the source gives them in different places.

Assays:
[1] = test system: p38MAPK; assay: Western blotting of cell lysates with anti-phospho-p38 antibody; format: cell-based, mouse; details: B16-Ova cells
[2] = test system: B16-Ova cells; assay: HMGB1 in cell culture media by ELISA; format: cell-based, mouse; details: for HMGB1 (ng/ml) MEAN: culture media 24-48 hours after treatment
Protocol: Cell-free cell culture media was then analyzed by ELISA for HMGB1 according to the manufacturer's protocol.

[3] = test system: RIPK1; assay: Western blotting with anti phosphoRIPK1(S166) antibody; format: cell-based, mouse; details: B16-Ova cells
[4] = test system: B16-Ova cells; assay: Calreticulin surface exposure by flow cytometry; details: for CALR (%): 24 hours after treatment, representative experiment; for level of externalized calreticulin: 24 hours of drug exposure
[5] = test system: B16-Ova cells; assay: ATP levels in cell-free culture media by CellTiter-Glo; format: cell-based, mouse; details: for ATP (nM) MEAN: culture media 24-48 hours after treatment
Protocol: For measurement of ATP levels, cell-free culture media obtained as above was analyzed by CellTiter-Glo according to the manufacturer's protocol. Values were converted to ATP concentrations using a standard curve generated using pure ATP.

[6] = test system: B16-Ova cells; assay: Proportion of live and dead cells (AnnV/DAPI) after 24 h treatment with increasing doses; format: cell-based, mouse
Protocol: B16-Ova cells or MC-38-Ova cells were treated with various doses of chemotherapy as indicated in FIGS. 1F-1I for 24 hours after which the floating fraction of cells was transferred to a separate tube and washed with PBS (for AnnV/DAPI staining) or IMDM (for co-culture with BMDC). The attached fraction was rinsed 1× with PBS, detached using 5 mM EDTA (in PBS), washed with PBS or IMDM and transferred to a separate tube. Separately, cells treated with chemotherapy for 24 h were re-plated at 1 million cells per well of a 24-well plate in 500 ul of IMDM (10% FBS; P/S). Cell-free supernatants were collected after a further 24 h. […] Lysate of the total chemotherapy-treated cell mixture was generated by three rounds of freeze-thawing by alternate incubations in liquid nitrogen and a 37 C water bath.

[7] = test system: B16F10 melanoma tumor cell line; assay: Cell death by AnnexinV/DAPI staining 48 hours after drug treatment; format: cell-based, mouse; details: 48 hours; for cell death by DAPI and Annexin V staining: at the concentrations used; for cytotoxicity at 10 µM / viability at 10 µM / cytotoxicity at 50 µM / viability at 50 µM: Mus musculus, B16-F10; for viability at 10 µM / viability at 50 µM: read-out: AnnV−DAPI− (%) Mean
Protocol: For assessment of cell death, floating and attached cells were harvested after 48 hours of treatment with the indicated chemotherapeutic drugs. Attached cells were detached using 5 mM EDTA in PBS. The recovered cells were centrifuged at 250×g for 5 minutes, washed once in PBS containing 0.9 mM Ca2+ and 0.5 mM Mg2+ and then stained with AnnV-FITC for 15 minutes in Annexin binding buffer at room temperature according to the manufacturer's protocol (Biolegend). Cells were co-stained with DAPI at a final concentration of 1 μg/ml for 2 minutes in Annexin binding buffer, brought to a final volume of 500 ul using PBS containing 0.9 mM Ca2^+ and 0.5 mM Mg2^+ and analyzed by flow cytometry.
To identify how DNA-damaging chemotherapy could be optimally used to enhance anti-tumor immune function, cytotoxicity assays were performed using the B16F10 melanoma tumor cell line expressing ovalbumin (B16-Ova). Cells were treated with clinically used chemotherapeutic agents followed by assaying for cell death by DAPI and Annexin V staining 48 hours later.

[8] = test system: CT26 mouse colon cancer cells; details: previously reported; cited from earlier work
[9] = test system: MC-38-Ova cells; assay: In vitro cross presentation assay: drug-treated MC-38-Ova cells, BMDC and OT-1 CD8+ T-cells; format: cell-based, mouse
Protocol: (§1) B16-Ova or MC-38 Ova cells were treated with various doses of chemotherapeutic drugs for 24 h followed by extensive washing in IMDM (10% FBS, P/S). Subsequently 1×10^6 treated cells were co-cultured with 2.5×10^5 BMDC per well of a 24-well plate for each condition tested. After 24 hours of co-culture, supernatants were removed from each well and the BMDC washed 2-3 times in T-cell media (RPMI containing 10% FBS, 20 mM HEPES, 1 mM sodium pyruvate, 55 uM b-mercaptoethanol, 2 mM L-glutamine, nonessential amino acids and antibiotics). CD8+OT-I T-cells isolated from spleens of OT-I mice were then co-cultured with the BMDC at 125,000 T-cells per well to achieve an effector to target ratio of 0.5. Where indicated, BMDC and/or T-cells were also exposed to chemotherapy drugs. After a 12-15 h incubation, IFN-g producing T-cells were identified and quantified by intra-cellular cytokine staining and flow cytometry using a BD LSR II or Fortessa flow cytometer. Cells were first gated for CD3 expression, then re-gated for CD8 and IFNg expression.

[10] = test system: B16-Ova cells; assay: In vitro cross presentation assay: drug-treated B16-Ova cells, BMDC and OT-1 CD8+ T-cells, IFN-γ+ T-cells by flow cytometry; format: cell-based, mouse; parameters: reduction of the percentage of IFNg+ T-cells by siRNA knockdown of calreticulin / reduction of T-cell IFN-γ responses / frequency of IFN-γ+ T-cells: concentration or dose not given beside the values; details: for inducing the appearance of IFNγ+OT-1 CD8+ T-cells: 50 μM etoposide or 10 μM mitoxantrone; for reduction of the percentage of IFNg+ T-cells by siRNA knockdown of calreticulin: compared to siRNA controls
Protocol: as §1
An experimental system was developed to assess dendritic cell-mediated T-cell priming using the B16-Ova cells, in combination with primary bone-marrow derived dendritic cells (BMDC) and OT-I CD8+ T-cells expressing a TCR transgene that specifically recognizes the Ova-derived peptide […] (SEQ ID NO:1) in the context of H2-Kb (OT-1) (Clarke, et al., Immunol Cell Biol., 78(2):110-7 (2000); Hogquist, et al., Cell, 76(1):17-27 (1994)). […] The treated B16-Ova cells/BMDC co-culture was then incubated with purified CD8+ T-cells obtained from the spleens of OT-1 mice, and the appearance of IFNg+CD8 T-cells was measured 12-15 hours later by intracellular staining and subsequent quantification using flow cytometry.

[11] = MC-38-Ova cells treated with 10 uM for 24 h
[12] = MC-38-Ova cells treated with 50 uM for 24 h
[13] = B16-Ova cells treated with 10 uM for 24 h
[14] = B16-Ova cells treated with 50 uM for 24 h

| Structure (SMILES) | p38MAPK activation [1] | HMGB1 (ng/ml) MEAN ([2]; 10 uM) | HMGB1 (ng/ml) MEAN ([2]; 50 uM) | RIPK1 activation [3] | CALR (%) ([4]; 10 uM) | CALR (%) ([4]; 50 uM) | level of externalized calreticulin [4] | ATP (nM) MEAN ([5]; 10 uM) | ATP (nM) MEAN ([5]; 50 uM) | cell death by DAPI and Annexin V staining [7] | cytotoxicity at 10 µM ([7]; read-out: AnnV+DAPI+ (%) Mean) | cytotoxicity at 10 µM ([7]; read-out: AnnV+DAPI− (%) Mean) | cytotoxicity at 10 µM ([7]; read-out: AnnV−DAPI+ (%) Mean) | viability at 10 µM [7] | cytotoxicity at 50 µM ([7]; read-out: AnnV+DAPI+ (%) Mean) | cytotoxicity at 50 µM ([7]; read-out: AnnV+DAPI− (%) Mean) | cytotoxicity at 50 µM ([7]; read-out: AnnV−DAPI+ (%) Mean) | viability at 50 µM [7] | immunogenic cell death / calreticulin exposure [8] | % CD3+CD8+IFN-γ+ T-cells MEAN [9, 11] | further results |
| --- | --- | --- | --- | --- | --- | --- | --- | --- | --- | --- | --- | --- | --- | --- | --- | --- | --- | --- | --- | --- | --- |
| O=C1c2c(O)ccc(O)c2C(=O)c2c(NCCNCCO)ccc(NCCNCCO)c21 [Mito, mitoxantrone] | p38MAPK activation | 70.09 ng/mL | 14.63 ng/mL | induce RIPK1 activation | 17.10% | 4.15% | highest level of externalized calreticulin | 1.02 nM | 1.80 nM | caused varying extents of apoptotic and non-apoptotic cell death | 52.4% | 17.1% | 9.44% | 21.1% | 73.8% | 11.7% | 8.5% | 6.08% | promote strong immunogenic cell death | 3.433% | ATP release ([5]; after 24 hours of treatment): Substantial ATP release; dead cell proportion ([6]; 25 uM and higher doses): greater than 90%; dead cell proportion ([6]; between 5 and 10 uM): ~50%; % CD3+CD8+IFN-γ+ T-cells MEAN [9, 12]: 0.148%; IFN-γ responses in T-cells ([10]; 5 uM): maximum IFN-γ responses; IFN-γ responses in T-cells ([10]; 10 uM): lower IFN-γ response; IFN-γ responses in T-cells ([10]; 25 uM and higher doses): undetectable; inducing the appearance of IFNγ+OT-1 CD8+ T-cells [10]: highly effective; % CD3+CD8+IFN-γ+ T-cells MEAN [10, 13]: 5.57%; % CD3+CD8+IFN-γ+ T-cells MEAN [10, 14]: 0.44%; % CD3+CD8+IFN-γ+ T-cells MEAN ([10]; Table 7 experiment, 10 uM alone): 3.98%; reduction of the percentage of IFNg+ T-cells by siRNA knockdown of calreticulin [10]: ~80%; % CD3+CD8+IFN-γ+ T-cells MEAN ([10]; siCalR (calreticulin knockdown) B16-Ova cells, 10 uM): 1.10%; % CD3+CD8+IFN-γ+ T-cells MEAN ([10]; siCtrl (control siRNA) B16-Ova cells, 10 uM): 4.63% |
| COc1cc([C@@H]2c3cc4c(cc3[C@@H](O[C@@H]3O[C@@H]5CO[C@@H](C)O[C@H]5[C@H](O)[C@H]3O)[C@H]3COC(=O)[C@H]23)OCO4)cc(OC)c1O [Etop, etoposide] | p38MAPK activation | 29.24 ng/mL | 10.65 ng/mL | induce RIPK1 activation | 9.69% | 9.69% | intermediate levels of calreticulin exposure | 2.05 nM | 1.35 nM | caused varying extents of apoptotic and non-apoptotic cell death | 51% | 11.6% | 6.54% | 30.9% | 47.9% | 10.9% | 4.57% | 36.6% | ineffective at inducing ER stress and calreticulin exposure | 13.13% | HMGB1 release into the media ([2]; 24-48 hours post-treatment window): lowest levels of HMGB1 release; proportion of dead cells (AnnV or DAPI single or double positive) ([6]; 25 uM): ~30%; further increase of the proportion of dead cells ([6]; 100 uM): ~5%; proportion of dead cells (AnnV or DAPI single or double positive) ([6]; between 25 and 75 uM): ~30%; % CD3+CD8+IFN-γ+ T-cells MEAN [9, 12]: 3.83%; inducing the appearance of IFNγ+OT-1 CD8+ T-cells ([9]; MC-38-Ova, etoposide 10 μM): the most effective treatment; inducing the appearance of IFNγ+OT-1 CD8+ T-cells [10]: highly effective; % CD3+CD8+IFN-γ+ T-cells MEAN [10, 13]: 0.86%; % CD3+CD8+IFN-γ+ T-cells MEAN [10, 14]: 4.80%; % CD3+CD8+IFN-γ+ T-cells MEAN ([10]; Table 7 experiment, 50 uM alone): 4.11%; % CD3+CD8+IFN-γ+ T-cells MEAN ([10]; Table 10 experiment, Etop 50 uM alone): 22.90%; appearance of IFN-γ+ CD8+ T-cells ([10]; co-exposure of both BMDCs and tumor cells, compared to exposure of B16-Ova cells alone): significantly reduced the appearance of IFN-γ+ CD8+ T-cells; reduction of the percentage of IFNg+ T-cells by siRNA knockdown of calreticulin [10]: ~50%; magnitude of IFN-γ responses in T-cells ([10]; increasing doses from 0 to 100 uM): corresponding increase in the magnitude of IFN-γ responses; % CD3+CD8+IFN-γ+ T-cells MEAN ([10]; siCalR (calreticulin knockdown) B16-Ova cells, 50 uM): 2.71%; % CD3+CD8+IFN-γ+ T-cells MEAN ([10]; siCtrl (control siRNA) B16-Ova cells, 50 uM): 5.25%; tumor-directed T-cells relative to the level when exposure is limited to the tumor cells alone ([10]; triple co-exposure of tumor cells, BMDCs and T-cells): less than 10% |
